Measurements as given in US6066672A, “Amino compounds and angiotensin IV receptor agonists” (Taisho Pharmaceutical Co., Ltd., priority 1996, dated 2000).
Counter-ions that a name gives are not always drawn.

Molecular target: T1, angiotensin IV receptor (Cavia porcellus, UniProt H0VNM7)
T1 construct: The Hartley guinea pig hippocampus was homogenized in a 50 mM Tris hydrochloride buffer solution; from tissue; host or cells: Hartley guinea pig hippocampus, crude membrane (48,000 x g precipitate)
T1 sequence (H0VNM7 1-1025): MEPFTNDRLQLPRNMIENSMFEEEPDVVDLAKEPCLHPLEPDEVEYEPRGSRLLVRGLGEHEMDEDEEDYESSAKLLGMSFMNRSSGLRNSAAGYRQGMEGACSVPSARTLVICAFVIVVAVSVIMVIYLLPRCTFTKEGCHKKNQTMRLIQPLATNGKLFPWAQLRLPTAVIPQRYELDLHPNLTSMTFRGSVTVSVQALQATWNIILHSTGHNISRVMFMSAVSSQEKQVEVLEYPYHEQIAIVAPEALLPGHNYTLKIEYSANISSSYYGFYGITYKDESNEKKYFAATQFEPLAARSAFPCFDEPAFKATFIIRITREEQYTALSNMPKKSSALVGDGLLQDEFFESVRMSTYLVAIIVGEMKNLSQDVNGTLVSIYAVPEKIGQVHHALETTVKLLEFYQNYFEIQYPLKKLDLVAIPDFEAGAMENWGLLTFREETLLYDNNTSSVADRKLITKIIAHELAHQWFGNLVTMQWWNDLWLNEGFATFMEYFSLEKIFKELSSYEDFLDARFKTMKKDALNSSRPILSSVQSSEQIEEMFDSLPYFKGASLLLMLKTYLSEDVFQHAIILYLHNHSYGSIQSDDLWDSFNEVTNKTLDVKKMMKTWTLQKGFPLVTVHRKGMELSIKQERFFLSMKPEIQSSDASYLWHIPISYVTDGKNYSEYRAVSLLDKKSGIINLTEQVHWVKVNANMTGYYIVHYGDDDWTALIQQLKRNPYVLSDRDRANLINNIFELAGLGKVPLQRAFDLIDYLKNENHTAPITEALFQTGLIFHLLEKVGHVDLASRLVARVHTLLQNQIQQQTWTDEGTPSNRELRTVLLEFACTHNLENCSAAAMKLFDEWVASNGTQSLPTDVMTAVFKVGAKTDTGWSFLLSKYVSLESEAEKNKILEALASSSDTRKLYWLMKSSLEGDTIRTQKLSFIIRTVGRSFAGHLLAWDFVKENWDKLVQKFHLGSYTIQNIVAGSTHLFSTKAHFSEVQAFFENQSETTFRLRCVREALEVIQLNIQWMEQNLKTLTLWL
Assay: binding capability to angiotensin IV receptor, inhibition of 125I-angiotensin IV binding to guinea pig hippocampus membrane
Conditions: 0.2 nM 125I-angiotensin IV, Hartley guinea pig hippocampus crude membrane, 37° C., 90 minutes, pH 7.4
Experimental: The binding capability to angiotensin IV receptor was measured by using Hartley guinea pig hippocampus referring to the method described by Miller-Wing et al., J. Pharmacol. Exp. Ther., vol. 266, pp.1718 (1993). The Hartley guinea pig hippocampus was homogenized in a 50 mM Tris hydrochloride buffer solution (pH 7.4) containing 1 mM ethylenediamine-N,N,N',N'-tetraacetic acid (EDTA) and 100 μM phenylmethanesulfonyl fluoride (PMSF). After centrifugation at 900× g, the resulting supernatant was further centrifuged at 48,000× g. The precipitate was washed once with the same buffer solution and suspended in 50 mM Tris hydrochloride buffer solution (pH 7.4) containing 150 mM sodium chloride, 1 mM EDTA, 100 μM PMSF and 0.1% bovine serum albumin (BSA) to give a protein concentration of […] as a crude membrane specimen. […] The radioactivity on the filter paper was measured by using a gamma-counter. The non-specific bond was measured in the presence of 1 μM angiotensin IV, and the specific bond was calculated by subtracting the non-specific bond from the total bond.

| Structure (SMILES) | IC50 [nM] |
| --- | --- |
| CCCC[C@H](N)CN[C@@H](Cc1ccc(O)cc1)C(=O)N[C@H](/C=C/c1ccc(C)cc1)[C@@H](C)CC [Example 1, N'-[(S)-2-aminohexyl]-N-[(S)-(E)-3-(4-methylphenyl)-1-[(S)-1-methylpropyl]-2-propenyl]-L-tyrosinamide dihydrochloride] | 0.59 |
| CCCC[C@H](N)CN[C@@H](Cc1ccc(O)cc1)C(=O)N[C@H](CCc1ccc(C)cc1)[C@@H](C)CC [Example 2, N'-[(S)-2-aminohexyl]-N-[(1R,2S)-2-methyl-1-[2-(4-methylphenyl)ethyl]butyl]-L-tyrosinamide dihydrochloride] | 4.13 |
| CCC/C=C\[C@@H](NC(=O)[C@H](Cc1ccc(O)cc1)NC[C@@H](N)CCCC)[C@@H](C)CC [Example 3, N'-[(S)-2-aminohexyl]-N-[(S)-(Z)-1-[(S)-1-methylpropyl]-2-hexenyl]-L-tyrosinamide dihydrochloride] | 12.6 |
| CCCCC[C@@H](NC(=O)[C@H](Cc1ccc(O)cc1)NC[C@@H](N)CCCC)[C@@H](C)CC [Example 4, N'-[(S)-2-aminohexyl]-N-[(R)-1-[(S)-1-methylpropyl]hexyl]-L-tyrosinamide dihydrochloride] | 11.5 |
| CCCC[C@H](N)CN[C@@H](Cc1ccc(O)cc1)C(=O)N[C@H](/C=C\Cc1ccccc1)CC(C)C [Example 5, N'-[(S)-2-aminohexyl]-N-[(S)-(Z)-1-(2-methylpropyl)-4-phenyl-2-butenyl]-L-tyrosinamide dihydrochloride] | 7.22 |
| CCCC[C@H](N)CN[C@@H](Cc1ccc(O)cc1)C(=O)N[C@H](CCCc1ccccc1)CC(C)C [Example 6, N'-[(S)-2-aminohexyl]-N-[(R)-3-methyl-1-(3-phenylpropyl)butyl]-L-tyrosinamide dihydrochloride] | 18.3 |
| CCCC[C@H](N)CN[C@@H](Cc1ccc(O)cc1)C(=O)N[C@H](/C=C/c1ccncc1)CC(C)C [Example 7, N'-[(S)-2-aminohexyl]-N-[(S)-(E)-1-(2-methylpropyl)-3-(4-pyridyl)-2-propenyl]-L-tyrosinamide trihydrochloride] | 0.93 |
| CCCC[C@H](N)CN[C@@H](Cc1ccc(O)cc1)C(=O)N[C@H](CCc1ccncc1)CC(C)C [Example 8, N'-[(S)-2-aminohexyl]-N-[(R)-3-methyl-1-[2-(4-pyridyl)ethyl]butyl]-L-tyrosinamide trihydrochloride] | 15.2 |
| CCCC[C@H](N)CN[C@@H](Cc1ccc(O)cc1)C(=O)N[C@@H](/C=C/c1ccncc1)CC(C)C [Example 9, N'-[(S)-2-aminohexyl]-N-[(R)-(E)-1-(2-methylpropyl)-3-(4-pyridyl)-2-propenyl]-L-tyrosinamide trihydrochloride] | 22.1 |
| CCCC[C@H](N)CN[C@@H](Cc1ccc(O)cc1)C(=O)N[C@@H](CCc1ccncc1)CC(C)C [Example 10, N'-[(S)-2-aminohexyl]-N-[(S)-3-methyl-1-[2-(4-pyridyl)ethyl]butyl]-L-tyrosinamide trihydrochloride] | 81.1 |
| CCCC[C@H](N)CN[C@@H](Cc1ccc(O)cc1)C(=O)N[C@H](/C=C/c1ccc(C(=O)OC)cc1)CC(C)C [Example 11, N'-[(S)-2-aminohexyl]-N-[(S)-(E)-3-(4-methoxycarbonylphenyl)-1-(2-methylpropyl)-2-propenyl]-L-tyrosinamide dihydrochloride] | 1.23 |
| CCCC[C@H](N)CN[C@@H](Cc1ccc(O)cc1)C(=O)N[C@H](CCc1ccc(C(=O)OC)cc1)CC(C)C [Example 12, N'-[(S)-2-aminohexyl]-N-[(R)-1-[2-(4-methoxycarbonylphenyl)ethyl]-3-methylbutyl]-L-tyrosinamide dihydrochloride] | 35.1 |
| CCCC[C@H](N)CN[C@@H](Cc1ccc(O)cc1)C(=O)N[C@H](/C=C/c1ccc(C(=O)O)cc1)CC(C)C [Example 13, N'-[(S)-2-aminohexyl]-N-[(S)-(E)-3-(4-carboxyphenyl)-1-(2-methylpropyl)-2-propenyl]-L-tyrosinamide dihydrochloride] | 1.79 |
| CCCC[C@H](N)CN[C@@H](Cc1ccc(O)cc1)C(=O)N[C@H](CCc1ccc(C(=O)O)cc1)CC(C)C [Example 14, N'-[(S)-2-aminohexyl]-N-[(R)-3-methyl-1-[2-(4-carboxyphenyl)ethyl]butyl]-L-tyrosinamide dihydrochloride] | 26.6 |
| CCCC[C@H](N)CN[C@@H](Cc1ccc(O)cc1)C(=O)N[C@H](/C=C/c1cccc2ccccc12)CC(C)C [Example 15, N'-[(S)-2-aminohexyl]-N-[(S)-(E)-1-(2-methylpropyl)-3-(1-naphthyl)-2-propenyl]-L-tyrosinamide dihydrochloride] | 3.76 |
| CCCC[C@H](N)CN[C@@H](Cc1ccc(O)cc1)C(=O)N[C@H](CCc1cccc2ccccc12)CC(C)C [Example 16, N'-[(S)-2-aminohexyl]-N-[(R)-3-methyl-1-[2-(1-naphthyl)ethyl]butyl]-L-tyrosinamide dihydrochloride] | 3.43 |
| CCCC[C@H](N)CN[C@@H](Cc1ccc(O)cc1)C(=O)N[C@H](/C=C/c1ccccc1)CC(C)C [Example 17, N'-[(S)-2-aminohexyl]-N-[(S)-(E)-1-(2-methylpropyl)-3-phenyl-2-propenyl]-L-tyrosinamide dihydrochloride] | 0.65 |
| CCCC[C@H](N)CN[C@@H](Cc1ccc(O)cc1)C(=O)N[C@H](CCc1ccccc1)CC(C)C [Example 18, N'-[(S)-2-aminohexyl]-N-[(R)-3-methyl-1-[2-phenylethyl]butyl]-L-tyrosinamide dihydrochloride] | 8.7 |
| CCCC[C@H](N)CN[C@@H](Cc1ccc(O)cc1)C(=O)N[C@H](/C=C/c1ccc(Cl)cc1)CC(C)C [Example 19, N'-((S)-2-aminohexyl]-N-[(S)-(E)-3-(4-chlorophenyl)-1-(2-methylpropyl)-2-propenyl]-L-tyrosinamide dihydrochloride] | 0.53 |
| CCCC[C@H](N)CN[C@@H](Cc1ccc(O)cc1)C(=O)N[C@H](/C=C\c1ccc(Cl)cc1)CC(C)C [Example 20, N'-[(S)-2-aminohexyl]-N-[(S)-(Z)-3-(4-chlorophenyl)-1-(2-methylpropyl)-2-propenyl]-L-tyrosinamide dihydrochloride] | 5.46 |
| CCCC[C@H](N)CN[C@@H](Cc1ccc(O)cc1)C(=O)N[C@H](/C=C/c1ccc(-c2ccccc2)cc1)CC(C)C [Example 21, N'-[(S)-2-aminohexyl]-N-[(S)-(E)-3-([1,1'-biphenyl]-4-yl)-1-(2-methylpropyl)-2-propenyl]-L-tyrosinamide dihydrochloride] | 6 |
| CCCC[C@H](N)CN[C@@H](Cc1ccc(O)cc1)C(=O)N[C@H](CCc1ccc(-c2ccccc2)cc1)CC(C)C [Example 22, N'-[(S)-2-aminohexyl]-N-[(R)-1-[2-([1,1'-biphenyl]-4-yl)ethyl]-3-methylbutyl]-L-tyrosinamide dihydrochloride] | 89 |
| CCCC[C@H](N)CN[C@@H](Cc1ccc(O)cc1)C(=O)N[C@H](/C=C/c1ccc2ccccc2n1)CC(C)C [Example 23, N'-[(S)-2-aminohexyl]-N-[(S)-(E)-3-(2-quinolyl)-1-(2-methylpropyl)-2-propenyl]-L-tyrosinamide trihydrochloride] | 0.53 |
| CCCC[C@H](N)CN[C@@H](Cc1ccc(O)cc1)C(=O)N[C@H](CCc1ccc2ccccc2n1)CC(C)C [Example 24, N'-[(S)-2-aminohexyl]-N-[(R)-3-methyl-1-[2-(2-quinolyl)ethyl]butyl]-L-tyrosinamide dihydrochloride] | 3.77 |
| C=C[C@H](CC(C)C)NC(=O)[C@H](Cc1ccc(O)cc1)NC[C@@H](N)CCCC [Example 25, N'-[(S)-2-aminohexyl]-N-[(S)-1-(2-methylpropyl)-2-propenyl]-L-tyrosinamidedihydrochloride] | 89 |
